# Columns and labels:
# [1] = MTT relative viability, PCMV-SEAP (hTERT-BJ1) cells; type: cell-based; settings: human, stable PCMV-SEAP reporter clone
# Text: Culture media were changed every 3 days. […] The stable clones were selected using G418.
# [2] = test system: transcriptional activity of hTERT; experiment: SEAP reporter assay of hTERT expression, PhTERT-SEAP (H1299); type: cell-based, human; settings: Homo sapiens, NCI-H1299, H1299, read-out: Relative SEAP activity (%)
# In short: (§1)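 Cells seeded, grown 24 h at 37° C, refed, then exposed to varying drug amounts for another 24 h. Collected media heated 65° C for 10 min to kill heat-labile phosphatases, mixed with equal SEAP buffer (2 M diethanolamine, 1 mM MgCl2, 20 mM […]) plus 12 mM final p-nitrophenyl phosphate; rate of A405 increase measured.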
# [3] = test system: iron-induced lipid peroxidation in rat brain homogenates; experiment: Iron-induced lipid peroxidation in rat brain homogenates; settings: for Inhibition of LP(10 mM): mean percent inhibition (Table 3); for LP (%) (10 mM): relative percentage of inhibition (Table 1)
# rat glioma C6 cells = experiment: Cytotoxicity assay (XTT colorimetric), C6 cells; type: cell-based; settings: Rattus norvegicus, C6; 48 h of drug exposure
# [4] = MTT relative viability, PhTERT-SEAP (H1299) cells; settings: human
# CMV promoter = experiment: SEAP reporter assay of CMV promoter activity, PCMV-SEAP (hTERT-BJ1); type: cell-based; settings: Homo sapiens, read-out: Relative SEAP activity (%)
# [5] = MTT relative viability, PhTERT-SEAP (hTERT-BJ1) cells; settings: human
# Experimental: The tetrazolium reagent (MTT; 3-(4,5-di-methylthiazol)-2,5-diphenyl tetrazolium bromide, USB) was designed to yield a colored formazan upon metabolic reduction by viable cells. Approximately […] cells were plated onto each well of a 96-well plate and incubated in 5% CO2 at 37° C. for 24 h. To assess the in vitro cytotoxicity, each compound was dissolved in DMSO and prepared immediately before the experiments and was diluted into the complete medium before addition to cell cultures. Test compounds were then added to the culture medium for designated various concentrations. After 48 h, an amount of 25 μL of MTT was added to each well, and the samples were incubated at 37° C. for 4 h. A 100 μL solution of lysis buffer containing 20% SDS and 50% N,N-dimethylformamide was added to each well and incubated at 37° C. for another 16 h. The absorbency at 550 nm was measured using an ELISA reader.
# Non small lung cancer cells H1299 (telomerase positive) were grown in RPMI 1640 media supplemented with 10% fetal bovine serum, 100 units/mL penicillin and 100 mg/mL streptomycin in a humidified atmosphere with 5% CO2 at 37° C. The hTERT immortalized hTERT-BJ1 (BD Biosciences Clontech)^39 were grown in DMEM media supplemented with 10% fetal calf serum, 100 units/mL penicillin and 100 mg/mL streptomycin, 1 mM sodium pyruvate, and 4 mM I-arginine in a humidified atmosphere with 5% CO2 at 37° C. Culture media were changed every 3 days. […] The stable clones derived from H1299 or hTERT-BJ1 were cultured using conditions that are similar to their parental cells.
# human hepatoma G2 cells = experiment: Cytotoxicity assay (XTT colorimetric), Hep G2; type: cell-based; settings: Homo sapiens, HepG2; 48 h of drug exposure
# [6] = test system: transcriptional activity of hTERT; experiment: SEAP reporter assay of hTERT expression, PhTERT-SEAP (hTERT-BJ1); type: cell-based, human; settings: Homo sapiens, hTERT-BJ1, read-out: Relative SEAP activity (%)
# In short: as §1
Compound,IC50 (rat glioma C6 cells),melting point,IC50 (human hepatoma G2 cells),LP (%) (10 mM) ([3]; 10 mM),activity at 2.2 µM [2],activity at 22 µM [2],activity at 220 µM [2],"viability at 48 h, 2.2 µM [4]","viability at 48 h, 22 µM [4]","viability at 48 h, 220 µM [4]","viability at 48 h, 2.2 µM [5]","viability at 48 h, 22 µM [5]","viability at 48 h, 220 µM [5]",activity at 2.2 µM [6],activity at 22 µM [6],activity at 220 µM [6],further results
"CCC(=O)Oc1cccc2c1C(=O)c1cccc(OC(=O)CC)c1C2=O [IIIa, 1,5-Bis(propionyloxy)-anthraquinone]",21.1 ± 1.6 µM,230 to 231 °C,4.1 ± 0.5 µM,,,,,,,,,,,,,,"viability at 48 h, 2.8 µM ([1]; 2.8 μM): 114 ± 16%; viability at 48 h, 28 µM ([1]; 28 μM): 110 ± 12%; viability at 48 h, 280 µM ([1]; 280 μM): 94 ± 21%; activity at 2.8 µM [2]: 103 ± 5.8%; activity at 28 µM [2]: 107 ± 4.9%; activity at 280 µM [2]: 97 ± 3.1%; Inhibition of LP(10 mM) ([3]; 10 mM): −100%; viability at 48 h, 2.8 µM [4]: 116 ± 8%; viability at 48 h, 28 µM [4]: 116 ± 7.4%; viability at 48 h, 280 µM [4]: 87 ± 6.6%; activity at 2.8 µM (CMV promoter; 2.8 μM): 101 ± 6%; activity at 28 µM (CMV promoter; 28 μM): 112 ± 6%; activity at 280 µM (CMV promoter; 280 μM): 138 ± 12%; viability at 48 h, 2.8 µM [5]: 99 ± 11.9%; viability at 48 h, 28 µM [5]: 109 ± 8.7%; viability at 48 h, 280 µM [5]: 93 ± 10.8%; activity at 2.8 µM [6]: 131 ± 7%; activity at 28 µM [6]: 152 ± 16.7%; activity at 280 µM [6]: 161 ± 12.2%"
"CC(C)(C)C(=O)Oc1cccc2c1C(=O)c1cccc(OC(=O)C(C)(C)C)c1C2=O [IIId, 1,5-Bis(pivaloyloxy)-anthraquinone]",12 ± 1.5 µM,166 to 167 °C,13.7 ± 1.8 µM,,,,,,,,,,,,,,"viability at 48 h, 2.4 µM ([1]; 2.4 μM): 115 ± 7%; viability at 48 h, 24 µM ([1]; 24 μM): 104 ± 8%; viability at 48 h, 240 µM ([1]; 240 μM): 103 ± 11%; activity at 2.4 µM ([2]; 2.4 μM): 105 ± 4.9%; activity at 24 µM ([2]; 24 μM): 78 ± 14.8%; activity at 240 µM ([2]; 240 μM): 80 ± 10.1%; Inhibition of LP(10 mM) ([3]; 10 mM): −23 ± 1.1^ %; viability at 48 h, 2.4 µM [4]: 106 ± 8.9%; viability at 48 h, 24 µM [4]: 97 ± 7.1%; viability at 48 h, 240 µM [4]: 70 ± 5.2%; activity at 2.4 µM (CMV promoter; 2.4 μM): 102 ± 10%; activity at 24 µM (CMV promoter; 24 μM): 114 ± 18%; activity at 240 µM (CMV promoter; 240 μM): 141 ± 11%; viability at 48 h, 2.4 µM [5]: 94 ± 3.4%; viability at 48 h, 24 µM [5]: 93 ± 6%; viability at 48 h, 240 µM [5]: 100 ± 9%; activity at 2.4 µM ([6]; 2.4 μM): 147 ± 11.1%; activity at 24 µM ([6]; 24 μM): 165 ± 18.7%; activity at 240 µM ([6]; 240 μM): 141 ± 14.4%"
"CCCSc1cccc2c1C(=O)c1cccc(SCCC)c1C2=O [IIc, 1,5-Bis(propylthio)-anthraquinone]",29.9 ± 2.1 µM,232 to 233 °C,75.1 ± 2.5 µM,15 ± 1.5%,,,,,,,,,,,,,"activity at 2.8 µM [2]: 73 ± 5.4%; activity at 28 µM [2]: 29 ± 2.5%; activity at 280 µM [2]: 17 ± 13.9%; viability at 48 h, 2.8 µM [4]: 96 ± 5.9%; viability at 48 h, 28 µM [4]: 44 ± 2.5%; viability at 48 h, 280 µM [4]: 25 ± 2.4%; viability at 48 h, 2.8 µM [5]: 103 ± 6.3%; viability at 48 h, 28 µM [5]: 97 ± 3%; viability at 48 h, 280 µM [5]: 39 ± 4.9%; activity at 2.8 µM [6]: 132 ± 21%; activity at 28 µM [6]: 110 ± 13.2%; activity at 280 µM [6]: 122 ± 14.3%"
"O=C1c2cccc(SCCCCCCO)c2C(=O)c2cccc(SCCCCCCO)c21 [IIe, 1,5-Bis(hydroxyhexylthio)-anthraquinone]",31.7 ± 1.6 µM,195 to 196 °C,49.3 ± 2.1 µM,54 ± 1.9%,,,,,,,,,,,,,"activity at 2.1 µM ([2]; 2.1 μM): 110 ± 6.1%; activity at 21 µM ([2]; 21 μM): 100 ± 5.5%; activity at 210 µM ([2]; 210 μM): 68 ± 5.9%; viability at 48 h, 2.1 µM [4]: 99 ± 6.2%; viability at 48 h, 21 µM [4]: 94 ± 3.9%; viability at 48 h, 210 µM [4]: 36 ± 4.2%; viability at 48 h, 2.1 µM [5]: 99 ± 6.2%; viability at 48 h, 21 µM [5]: 70 ± 2.2%; viability at 48 h, 210 µM [5]: 40 ± 4.7%; activity at 2.1 µM ([6]; 2.1 μM): 140 ± 9.7%; activity at 21 µM ([6]; 21 μM): 128 ± 14.4%; activity at 210 µM ([6]; 210 μM): 75 ± 17.4%"
"Nc1ccccc1Sc1cccc2c1C(=O)c1cccc(Sc3ccccc3N)c1C2=O [IIf, 1,5-Bis(o-aminophenylthio)-Anthraquinone]",15.1 ± 1.7 µM,283 to 284 °C,34 ± 1.7 µM,5 ± 0.5%,108 ± 12.2%,96 ± 8.4%,59 ± 6.6%,94 ± 3.5%,50 ± 3.3%,14 ± 2.5%,103 ± 7.9%,107 ± 5.5%,25 ± 3.3%,136 ± 17.5%,141 ± 18.2%,115 ± 29.7%,"viability at 48 h, 2.2 µM ([1]; 2.2 μM): 108 ± 9%; viability at 48 h, 22 µM ([1]; 22 μM): 109 ± 4%; viability at 48 h, 220 µM ([1]; 220 μM): 48 ± 6%; activity at 2.2 µM (CMV promoter; 2.2 μM): 103 ± 8%; activity at 22 µM (CMV promoter; 22 μM): 102 ± 10%; activity at 220 µM (CMV promoter; 220 μM): 122 ± 8%"
"Nc1cccc(Sc2cccc3c2C(=O)c2cccc(Sc4cccc(N)c4)c2C3=O)c1 [IIg, 1,5-Bis(m-aminophenylthio)-Anthraquinone]",26.3 ± 2.8 µM,292 to 293 °C,21.5 ± 1.2 µM,6 ± 0.9%,106 ± 7.6%,109 ± 11.7%,101 ± 7.3%,92 ± 3.5%,68 ± 1.9%,32 ± 4.9%,104 ± 5.1%,9 ± 3.4%,4 ± 1.5%,118 ± 9.9%,41 ± 9.5%,8 ± 30.6%,
"Nc1ccc(Sc2cccc3c2C(=O)c2cccc(Sc4ccc(N)cc4)c2C3=O)cc1 [IIh, 1,5-Bis(p-aminophenylthio)-Anthraquinone]",0.05 ± 0.01 µM,364 to 365 °C,17.4 ± 1.5 µM,20 ± 1.4%,100 ± 5.7%,95 ± 2.6%,84 ± 5.3%,103 ± 4.3%,76 ± 4%,42 ± 2.3%,86 ± 11.9%,65 ± 12.6%,56 ± 13.8%,97 ± 17.9%,97 ± 14.5%,26 ± 12.6%,
"O=C1c2cccc(SCc3ccccc3)c2C(=O)c2cccc(SCc3ccccc3)c21 [IIi, 1,5-Bis(benzylthio)-anthraquinone]",38.2 ± 4.4 µM,281 to 282 °C,41.5 ± 2.5 µM,>100%,97 ± 6%,100 ± 7.2%,100 ± 12.9%,83 ± 5.5%,44 ± 0.9%,34 ± 3.3%,121 ± 4.7%,98 ± 4.2%,47 ± 9.1%,117 ± 11.3%,112 ± 9.3%,87 ± 11.1%,Inhibition (%) ([3]; 0.01 mM): 24 ± 0.8%; Inhibition (%) ([3]; 0.1 mM): 60 ± 2.0%; Inhibition (%) ([3]; 1 mM): 95%; Inhibition (%) ([3]; 10 mM): >100%
"O=C1c2cccc(SCCc3ccccc3)c2C(=O)c2cccc(SCCc3ccccc3)c21 [IIk, 1,5-Bis(phenylethylthio)-anthraquinone]",32.9 ± 3.3 µM,209 to 210 °C,36.9 ± 1.5 µM,69 ± 1.5%,108 ± 0.5%,102 ± 0.5%,97 ± 4.8%,93 ± 6.2%,51 ± 9.3%,27 ± 2.9%,91 ± 3.9%,54 ± 4.4%,35 ± 4.1%,119 ± 12.2%,109 ± 23.4%,110 ± 30.6%,

# Reference: US20050009924A1 (priority 2003, published 2005)
